Results on one compound are retold here after article PMC11802874, “The hypolipidemic effect of MI-883, the combined CAR agonist/ PXR antagonist, in diet-induced hypercholesterolemia model” (Nature Communications, 2025).

Molecules are shown by their SMILES. Values joined by “and” are separate entries in the source; they are usually repeats but may differ in a detail not shown here. Equal values may be shown once. Read-outs that look alike come from different tables or passages of the source.

Series [1] concerns humanized PXR-CAR-CYP3A4/3A7 mice, liver. Description: UHPSFC/MS liver lipidomics (HFD study). It is filed as in vivo, mouse. Here is the method:
Solvents, additives, lipid class internal standards, liver sample preparation, and UHPSFC/MS measurement are described in detail in Supplementary, Chapter 19. Lipid separation using UHPSFC (Acquity UPC^2 instrument from Waters; Milford, MA, USA) was performed on column Viridis BEH (100 × 3 mm, 1.7 µm) with the following conditions: the column temperature 60 °C, the flow rate 1.9 mL/min, and the injection volume 1 µL. The following linear gradient was performed using scCO2 and methanol (30 mM ammonium acetate + 1% of water) used as a modifier: 0 min – 1% modifier, 1.5 min – 16% modifier, 4 min – 51% modifier, 7 min – 51% modifier, 7.51 min – 1% modifier, and the equilibration with the total run time of 8 min. The automatic back-pressure regulator (ABPR) was set to 1800 psi and the autosampler temperature to 4 °C. Methanol with 30 mM ammonium acetate and 1% of water was used as the make-up solvent with a flow rate of 0.25 mL/min. The SFC was connected with the hybrid quadrupole - time of flight (QTOF) mass spectrometer Synapt G2-Si (Waters; Milford, MA, USA) with following conditions: sensitivity mode applying positive ESI mode, the mass range of m/z 150–1200, the capillary voltage of 3 kV, the sampling cone of 20 V, the source offset of 90 V, the source temperature of 150 °C, the desolvation temperature of 500 °C, the cone gas flow of 50 L/h, the desolvation gas flow of 1000 L/h, and the nebulizer gas flow of 4 bar. Mass spectra were acquired in the continuum mode with a scan time of 0.5 s and the peptide leucine enkephalin as the lock mass.
All UHPSFC/MS-QTOF spectra were acquired using MassLynx and processed as follows: noise reduction using the Compression tool followed by the lock mass correction and the conversion from continuum to centroid mode using the MassLynx tool (Accurate mass measure). […] Data were further analyzed using lipidr package. PCA and log2 fold change values were calculated using log2 transformed and Pareto scaled data. […]

The nature of series [2]: Stability in human plasma. The class given is in vitro ADME. As to conditions: plasma (legend: pooled human serum), read-out: Stability in human plasma, t1/2. Here is the method:
Plasma protein binding, and stability in human and mouse plasma have been tested as previously described. Supplementary Figure 1. […] Four time points over 120 minutes have been analyzed. […] Compounds were tested in triplicate with or without NADPH.

A short description of series [3]: Metabolic stability in mouse liver S9 fraction. Conditions: male, CD-1, mouse. Here is the method: Shimadzu HPLC system including vacuum degasser, gradient pumps, reverse phase HPLC column, column oven, and autosampler with an API 4000 QTRAP mass spectrometer (Applied Biosystems/MDS Sciex (AB Sciex) with Turbo V ion source and TurboIonspray interface were used. The reference compound midazolam, which is metabolized both by phase I and phase II enzymes, was used. The elimination constant (kel), half-life (t1/2), and intrinsic clearance (Clint) were determined[19] (Table S1).

Series [4] concerns FXR, LXRα, LXRβ, THα, GRα, PPARα, PPARδ/β, PPARγ, AhR, VD, ERα, ERβ, mouse Car. Nature of the series: Nuclear receptor luciferase reporter panel (statements on the whole panel). The class given is cell-based. From the text: (see Supplementary Chapter 7).
Thank you for the insightful question and comment. We have corrected the sentence to read:
Thank you for the idea. Yes, we conducted luciferase reporter assays in antagonistic "mode" for several nuclear receptors using their prototype ligands in the revised manuscript (Figure R7).
This information is included in the Supplementary Information.
Treatment with 5 and 10 µM
(1 picture or pasted object on this page, not shown here) […]
nM dexamethasone, 10 µM GW3965 (LXRα agonist), and 10 µM estradiol. Data are presented as a […]
On the technique in general: Reporter assays use an easily measured gene product as a stand-in for the process of interest.

Another series has as its target T1, human PXR (Homo sapiens, UniProt O75469).
T1 sequence (O75469 1-434): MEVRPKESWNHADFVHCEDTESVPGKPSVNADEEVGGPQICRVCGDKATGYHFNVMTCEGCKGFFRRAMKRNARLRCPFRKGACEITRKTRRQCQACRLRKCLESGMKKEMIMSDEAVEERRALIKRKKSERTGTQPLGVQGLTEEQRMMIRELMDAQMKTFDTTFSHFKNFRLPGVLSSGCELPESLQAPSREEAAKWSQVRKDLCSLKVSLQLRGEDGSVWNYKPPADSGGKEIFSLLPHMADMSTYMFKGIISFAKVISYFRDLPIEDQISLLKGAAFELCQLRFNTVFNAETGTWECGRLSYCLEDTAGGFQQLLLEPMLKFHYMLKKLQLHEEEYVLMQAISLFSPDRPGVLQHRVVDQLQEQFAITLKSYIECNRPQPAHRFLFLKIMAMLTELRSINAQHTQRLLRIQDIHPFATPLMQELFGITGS
Description: PXR luciferase reporter gene assay (CYP3A4-luc) in HepG2 cells. The class given is cell-based. On the set-up: host or cells: HepG2. Here is the method:
The half maximal effective concentration (EC50) to activate CAR or inhibit PXR (IC50) in the assays was calculated from at least eight points of the dose-response curves using the GraphPad Prism software.

Series [5] concerns PXR-responsive CYP3A4(pER6)-luc construct. Description: CYP3A4(pER6)-luc luciferase reporter assay in HepG2 cells.

Consider `NC(=O)c1cc(Cn2cc(-c3c(-c4ccc(Cl)cc4)nc4cc(F)ccn34)nn2)ccc1Cl` [MI-883, 2-chloro-5-((4-(2-(4-chlorophenyl)-7-fluoroimidazo[1,2-a]pyridin-3-yl)-1H-1,2,3-triazol-1-yl)methyl)benzamide], for which the “cholesteryl esters (CE) in livers, UHPSFC/MS lipidomics” value in series [1] was “not significantly altered”. The “total and some individual lysophosphatidylcholine (LPC) levels in liver” value in series [1] is given as “statistically significant decrease”. The “liver triglycerides with long and highly unsaturated fatty acids (TG 60:12, TG 60:13)” value in series [1] (male mice) is on record as “significant increase”. In addition, in series [2], the half-life at 1 µM was more than 2 h. The microsomal CLint (in general, the capacity of the preparation to metabolise the compound, expressed as a volume cleared per time) in series [3] (liver S9 fraction) is 3 µL/min/mg. The half-life in series [3] (s9) came out at 1.87 h. Moreover, the “interactions with other tested nuclear receptors (agonist mode)” value in series [4] (10 µM, 24 h, HepG2) is “no other interactions”. For the same compound, the “inhibition of other nuclear receptors, antagonistic mode (FXR, THα, AhR, PPARα, PPARγ, GR, LXRα)” value in series [4] (5 and 10 μM with prototype ligands) is given as “not inhibit the other nuclear receptors”. The IC50 – broadly, the concentration at which inhibition is half-maximal – at human PXR (HepG2 cells, read-out: IC50, basal PXR activation) turned out to be 2030 ± 300 nM; at human PXR (HepG2 cells, read-out: IC50, rifampicin-induced PXR activation) it was 3600 ± 400 nM; at human PXR (reply to reviewers, read-out: IC50 for PXR antagonistic activity) it was 2000 nM. Moreover, the “pER6-luc luciferase gene reporter assay (Fig1 m), replicates” value in series [5] (Rif 1μM + MI-883 30μM) was 0.18 and 0.17 and 0.185; in series [5] (SR12813 1μM + MI-883 30μM), 0.21 and 0.22 and 0.19; in series [5] (single agent 10μM), 0.17 and 0.18; in series [5] (single agent 30μM), 0.21 and 0.19.
